# From PubChem BioAssay AID449750 (Broad Institute, 2010)
# Active and inactive are the calls of the source. No rule for the calls is given here.
# Test: non-covalent RecA intein splicing inhibitors, dose response, biochemical, cell-free, fluorescence, secondary screen (AID 449750)
row,SMILES,AC50
1,CCOC(=O)c1c(C)[nH]c2c1-c1ccccc1C(=O)C2=O,5.39 µM
2,CCC(C)N(CC(=O)Nc1cccc(C)c1C)C(=O)CCl (centres undefined),30.2 µM
3,CCOC(=O)Cn1cc(/C=N/NC(=O)CC#N)c2ccccc21,> 38 µM (inactive)
4,O=C1c2ccccc2-n2c1nc1ccccc1c2=O,> 38 µM (inactive)
5,N#CC1=C(N)Oc2n[nH]c(-c3ccc(F)cc3)c2C1c1ccncc1 (centres undefined),8.32 µM
6,COc1ccc(OC)c(N2C(=O)C(Cl)=C(N3CCOCC3)C2=O)c1,> 38 µM (inactive)
7,CCCc1[nH]nc2c1C(c1ccc(OC(=O)N3CCOCC3)c(OC)c1)C(C#N)=C(N)O2 (centres undefined),> 38 µM (inactive)
8,O=[N+]([O-])c1c(NCCO)cc(Sc2nc3ccccc3s2)c2nonc12,32.3 µM
9,CCc1[nH]nc2c1C(c1ccsc1)C(C#N)=C(N)O2 (centres undefined),> 38 µM (inactive)
10,c1ccc(-c2nnc(-c3ccccn3)nc2NC2CCCCC2)cc1,7.98 µM
11,COC(=O)c1ccccc1NC(=S)NC(=O)c1ccc(C)cc1,> 38 µM (inactive)
12,CCC(CNc1cc(OC)cc2cccnc12)NC1CCCCC1 (centres undefined),6.86 µM
13,CSc1nnc(NC(=O)c2nc(S(=O)(=O)Cc3ccccc3F)ncc2Cl)s1,> 38 µM (inactive)
14,Cc1ccc(SC(=O)c2c(C)noc2-c2cc(C)on2)cc1,> 38 µM (inactive)
15,O=[N+]([O-])c1cncc([N+](=O)[O-])c1Nc1cccc(O)c1,> 38 µM (inactive)
16,O=[N+]([O-])c1cc([N+](=O)[O-])c2cc3ccccc3nc2c1,7.29 µM
17,CC(=O)Nc1ccccc1NC(=O)C/C(C)=N/NC(=O)C(=O)N1CCCCC1,> 38 µM (inactive)
18,C/C(CC(=O)Nc1cccnc1)=N\NC(=O)c1ccc([N+](=O)[O-])c(Cl)c1,> 38 µM (inactive)
19,CN(CCc1cnn(C)c1)C(=O)C1CCC(=O)N(CC2CCCCC2)C1 (centres undefined),> 38 µM (inactive)
20,N=c1c2c(ncn1Cc1ccco1)Oc1ccc3ccccc3c1C2c1ccccc1 (centres undefined),13.1 µM
21,CCOC(=O)C1CCC2(CC1)C(C#N)=C(N)Oc1n[nH]c(C)c12 (centres undefined),> 38 µM (inactive)
22,O=C(c1ccco1)N1CCN(c2nc(C3CC3)nc3sc4c(c23)CCCC4)CC1,12.7 µM
23,C#CC(=O)N(c1cc(OC)ccc1OC)C(C(=O)NC1CCCC1)c1cccs1 (centres undefined),2.35 µM
24,ONc1cccnc1-n1nc(C(F)(F)F)cc1C(F)(F)F,> 38 µM (inactive)
25,COC(=O)c1ccc(-n2c(C)cc(C(=O)CCl)c2C)cc1,17.8 µM
26,COc1ccccc1-c1cc(C(F)(F)F)nc(S(=O)(=O)CCCC(=O)N2CCCCC2C)n1 (centres undefined),> 38 µM (inactive)

row,SMILES,AC50
1,CCOc1ccc(CN(C)C(=O)CCl)cc1,11.1 µM
2,CCCCC(O)(CCCC)C(=O)NN(C(=O)CCl)c1ccccc1,6.32 µM
3,COc1cc(C2NC(=O)C(C#N)=C(Nc3cccc(C)c3)S2)ccc1O (centres undefined),3.17 µM
4,CCOC1(OCC)C(c2ccc(Cl)cc2)C(C#N)(C#N)C1(OCC)OCC (centres undefined),> 38 µM (inactive)
5,CC(C)(C)c1[nH]nc2c1C(c1ccoc1)C(C#N)=C(N)O2 (centres undefined),> 38 µM (inactive)
6,Oc1[nH]c2ccccc2c1N=NC(=S)N1CCOCC1,> 38 µM (inactive)
7,Cn1c(=O)[nH]c(=O)c2c1nc([N+](=O)[O-])n2Cc1ccccc1,> 38 µM (inactive)
8,Cc1ccccc1NC1=C(Cl)C(=O)OC1OC(=O)c1ccco1 (centres undefined),> 38 µM (inactive)
9,CN1c2ccccc2C(C)(C)C12C=Nc1c(cc(N3CCOCC3)c3ccccc13)O2 (centres undefined),> 38 µM (inactive)
10,CCCc1c(-c2ccc(O)cc2)nn(-c2ccc(O)cc2)c1-c1ccc(O)cc1,4.37 µM
11,O=C(Nc1cccc(F)c1)N1CCC(c2ccccc2)CC1,> 38 µM (inactive)
12,CC1CCCCC1NC(=O)NC(=O)CCl (centres undefined),39.8 µM
13,CCCCCCCCCCOC(=O)Cn1c(COc2ccccc2C)[n+](C)c2ccccc21,6.93 µM
14,CC1=NN(c2ccc(C(=O)O)c(N)c2)C(=O)C1,2.87 µM
15,COc1ccc(/C=N/NC(=O)c2nn(-c3ccccc3)c(=O)c3c(N)scc23)cc1,> 38 µM (inactive)
16,Cc1cccc(N2CC(C(=O)OCC(=O)c3ccc(OC(=O)c4cccs4)cc3)CC2=O)c1C (centres undefined),> 38 µM (inactive)
17,O=C1/C(=N\S(=O)(=O)c2cccs2)C([n+]2ccccc2)=C([O-])c2ccccc21,7.78 µM
18,Cc1ccc(C2C(C#N)=C(N)Oc3n[nH]c(-c4cccs4)c32)cc1 (centres undefined),15.3 µM
19,COC(=O)c1ccc(NC2=C(Cl)C(=O)OC2OC(=O)c2ccccc2)cc1 (centres undefined),> 38 µM (inactive)
20,Cc1nnc(N/N=C\c2ccc(-c3ccccc3[N+](=O)[O-])o2)n1N,> 38 µM (inactive)
21,O=C(NCc1ccccc1)c1nc(S(=O)(=O)Cc2ccccc2)ncc1Cl,> 38 µM (inactive)
22,CC(=O)c1cccc2c(O)c(C3=Nc4ccccc4C3=O)[nH]c12,34.6 µM
23,COc1ccccc1-n1nnnc1S(=O)(=O)Cc1ccc(Cl)cc1,> 38 µM (inactive)
24,CC(C)N(c1ccccc1)c1ccc(NC(=O)CCl)cc1,1.45 µM
25,O=C(CNC1=NCCC1)c1ccc(Cl)cc1,> 38 µM (inactive)
26,Oc1cc(O)c2c(c1)O[C@H](c1ccc(O)c(O)c1)[C@H](O)C2,> 38 µM (inactive)

row,SMILES,AC50
1,O=C(Nc1ccccc1N(C(=O)c1ccco1)S(=O)(=O)c1cccs1)c1ccco1,23.1 µM
2,C/C(CC(=O)Nc1cc(C)ccn1)=N\NC(=O)C(=O)NC(C)C,> 38 µM (inactive)
3,O=C(c1c[nH]c(C(=O)C(Cl)(Cl)Cl)c1)c1ccccc1Br,24.8 µM
4,COc1ccc(/C(=N/OC(C)=O)c2nccc3cc(OC)c(OC)cc23)cc1OC,> 38 µM (inactive)
5,CCOc1ccc(N2C(=O)/C(=C\c3ccc(O)c(OC)c3)S(=O)(=O)C2c2cccc([N+](=O)[O-])c2)cc1 (centres undefined),> 38 µM (inactive)
6,O=C(Oc1cccc(OC(=O)c2ccco2)c1)c1ccco1,5.11 µM
7,NNc1n[nH]c(=S)n1N,32.3 µM
8,Nc1c(-c2ccccc2)c(CSc2nc3ccccc3[nH]2)nn1-c1cccc(Cl)c1,> 38 µM (inactive)
9,COc1ccc(C2C(O)C(c3c[nH]c4ccccc34)=NN2C(=O)CCl)cc1 (centres undefined),1.22 µM
10,Cc1[nH][nH]c(=O)c1C(c1cc2c(cc1Br)OCO2)c1c(C)[nH][nH]c1=O,20.2 µM
11,O=C(NC1(O)C(=O)c2ccccc2C1=O)c1ccccc1,9.46 µM
12,COc1ccc(/C=C/C(=O)c2ccncc2)c2ccccc12,18.6 µM
13,O=C(CCl)N1c2ccccc2OCC1c1ccccc1 (centres undefined),12.7 µM
14,N#CC1=C(N)C(C#N)(C#N)C(c2cccnc2)C2CN(C(=O)OCc3ccccc3)CC=C12 (centres undefined),> 38 µM (inactive)
15,Cc1ccc(N2C(=O)C(Cl)=C(N3CCOCC3)C2=O)c(C)c1,> 38 µM (inactive)
16,Cc1[nH][nH]c(=O)c1C(c1ccc(Br)cc1)c1c(C)[nH][nH]c1=O,11.1 µM
17,COC(=O)c1cc(C)nc2c1C(=O)C(=O)C=C2N1CCOCC1,1.16 µM
18,Cc1cccc(CN2CCN(C(=O)CCl)CC2)c1,34.1 µM
19,CCOc1cc(/C=C(\C#N)C(=O)Nc2cccc(C(=O)O)c2)cc(Br)c1OC(=O)c1ccc(OC)cc1,8.34 µM
20,COc1ccc(Br)cc1[C@H]1[C@H]2C=CC[C@@H](C)[C@@H]2C(=O)N1Cc1ccccc1,14.4 µM
21,Cc1[nH]n(-c2ccccc2)c(=O)c1C(c1ccccc1[N+](=O)[O-])C(C#N)C#N (centres undefined),9.48 µM
22,Cc1cc2[nH]ncc2cc1NC(=S)NC(=O)c1ccccc1,> 38 µM (inactive)
23,Cn1cnc([N+](=O)[O-])c1S(=O)(=O)c1cccc(Cl)c1,30 µM
24,O=C1CS/C(=C\[N+](=O)[O-])N1c1ccc(OC(F)(F)F)cc1,> 38 µM (inactive)
25,CC1=NN(c2ccccc2)C(=O)C1/C=C1\C(=O)NC(=O)N(c2ccc(C)c(C)c2)C1=O (centres undefined),26.1 µM
26,Cc1nn(-c2ccccc2)c2c1C(c1cccs1)C(C#N)=C(N)O2 (centres undefined),18.3 µM

row,SMILES,AC50
1,CCOC(=O)c1c(NC(=O)CSc2nnc(-c3c[nH]c4ccccc34)n2CCOC)sc2c1CCCC2,> 38 µM (inactive)
2,O=C1CC(c2ccccc2)=NN1c1ccc([N+](=O)[O-])cc1,7.43 µM
3,O=S(=O)(c1ccc(Cl)c(Cl)c1)c1snnc1-c1ccccc1,9.72 µM
4,CC(=O)Nc1ccc(S(=O)(=O)/N=C2\C(=O)c3ccccc3C([O-])=C2n2cc[n+](-c3ccccn3)c2)cc1,5.71 µM
5,COc1cc(C(c2c(C)[nH][nH]c2=O)c2c(C)[nH][nH]c2=O)ccc1OS(=O)(=O)c1ccccc1,9.54 µM
6,COc1ccc(/C=C2/SC(=S)N(CCCC(=O)Nc3cccc(O)c3)C2=O)cc1,> 38 µM (inactive)
7,Cc1nn(-c2cccc(Cl)c2)c2c1C(c1cccnc1)C(C#N)=C(N)O2 (centres undefined),34.6 µM
8,COc1cccc(C(=O)Nc2nc(SCc3ccc(Cl)cc3)n[nH]2)c1,> 38 µM (inactive)
9,C[n+]1c2ccccc2nc2ccc(NCCO)cc21,10.1 µM
10,O=C(Nc1ncc([N+](=O)[O-])s1)c1ccco1,> 38 µM (inactive)
11,Cc1cc(C)c(S(=O)(=O)/N=C2\C=C(Nc3ccc(C(=O)O)cc3)C(=O)c3ccccc32)c(C)c1,0.669 µM
12,O=C(NC1C(=O)NNC1c1ccc(Cl)cc1)c1ccc(F)cc1 (centres undefined),> 38 µM (inactive)
13,COc1ccc(-c2nnc(Sc3nc4ccccc4o3)c3ccccc23)cc1,18.8 µM
14,O=C(NCc1ccc2c(c1)OCO2)c1nc(S(=O)(=O)Cc2ccccc2F)ncc1Cl,> 38 µM (inactive)
15,Cc1ccc(Cn2ncc(Cl)c(Cl)c2=O)cc1,22 µM
16,Cc1cnnn1-c1ccc(C(=O)CCl)cc1,> 38 µM (inactive)
17,O=c1cc(-c2ccc(C3CCCCC3)cc2)[nH][nH]1,7.41 µM
18,O=C(O)CC1OCC=C2CN3CCC45C6=CC(=O)C(=O)C([N+](=O)[O-])=C6NC4C1C2CC35 (centres undefined),32.5 µM
19,Cc1cccc(N2C(=O)C(Cl)=C(N3CCOCC3)C2=O)c1,> 38 µM (inactive)
20,CC(C)(C)c1cc(NC(=O)CCl)n(-c2ccccc2)n1,22.2 µM
21,CCO/C=C1/C(=O)N(Cc2ccccc2)C(=O)c2ccccc21,> 38 µM (inactive)
22,CCOC(=O)c1ccc(NC2=CC(=O)C(=O)c3ccccc32)cc1,> 38 µM (inactive)
23,O=C(/C=C/c1ccco1)c1ccc(NC(=O)C23CC4CC(CC(C4)C2)C3)cc1,12.9 µM
24,c1ccc(-c2nc(N3CCCCCC3)nc(-n3ccnc3)n2)cc1,> 38 µM (inactive)
25,CCOc1cc(NC2CS(=O)(=O)CC2O)c(OCC)cc1NC(=O)c1ccccc1 (centres undefined),> 38 µM (inactive)
26,CCc1nnc(NS(=O)(=O)c2ccc(NC(=S)NC(=O)/C=C/c3ccc(C(C)C)cc3)cc2)s1,5.98 µM
